Test results from article PMC7316778 (Nature Communications, 2020).
“And” between values parts separate entries of the source, which are not always exact repeats. Equal entries are not always repeated. Where two headings read alike, the source gives them in different places.

How the values were obtained:
CAMK2D (CaMKII delta) = CAMK2D (CaMKII delta) (Homo sapiens, UniProt Q13557); experiment: SelectScreen kinase assay
Protocol: (§1) Selectivity profiling assays were performed by the Invitrogen SelectScreen™ Services. […] The concentration of ATP was selected to be equal to the KM, unless indicated otherwise.

CLK4 = CLK4 (Homo sapiens, UniProt Q9HAZ1); experiment: SelectScreen kinase assay
Sequence of CLK4 (Q9HAZ1 whole entry, species assumed): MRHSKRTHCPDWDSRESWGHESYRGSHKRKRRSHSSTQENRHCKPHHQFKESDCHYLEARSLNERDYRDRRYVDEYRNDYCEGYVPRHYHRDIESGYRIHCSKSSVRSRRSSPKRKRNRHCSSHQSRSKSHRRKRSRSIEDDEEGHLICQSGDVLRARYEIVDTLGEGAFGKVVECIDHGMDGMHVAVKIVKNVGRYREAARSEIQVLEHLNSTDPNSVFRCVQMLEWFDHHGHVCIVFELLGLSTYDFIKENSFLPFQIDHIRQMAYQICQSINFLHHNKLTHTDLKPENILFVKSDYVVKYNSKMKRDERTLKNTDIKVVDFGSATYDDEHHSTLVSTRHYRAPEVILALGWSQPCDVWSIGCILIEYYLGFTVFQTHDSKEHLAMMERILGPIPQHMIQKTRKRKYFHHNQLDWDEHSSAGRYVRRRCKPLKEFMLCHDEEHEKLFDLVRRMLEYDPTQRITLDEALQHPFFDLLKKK
Protocol: as §1

MLK4 = MLK4 (Homo sapiens, UniProt Q5TCX8); experiment: SelectScreen kinase assay
Sequence of MLK4 (Q5TCX8 whole entry): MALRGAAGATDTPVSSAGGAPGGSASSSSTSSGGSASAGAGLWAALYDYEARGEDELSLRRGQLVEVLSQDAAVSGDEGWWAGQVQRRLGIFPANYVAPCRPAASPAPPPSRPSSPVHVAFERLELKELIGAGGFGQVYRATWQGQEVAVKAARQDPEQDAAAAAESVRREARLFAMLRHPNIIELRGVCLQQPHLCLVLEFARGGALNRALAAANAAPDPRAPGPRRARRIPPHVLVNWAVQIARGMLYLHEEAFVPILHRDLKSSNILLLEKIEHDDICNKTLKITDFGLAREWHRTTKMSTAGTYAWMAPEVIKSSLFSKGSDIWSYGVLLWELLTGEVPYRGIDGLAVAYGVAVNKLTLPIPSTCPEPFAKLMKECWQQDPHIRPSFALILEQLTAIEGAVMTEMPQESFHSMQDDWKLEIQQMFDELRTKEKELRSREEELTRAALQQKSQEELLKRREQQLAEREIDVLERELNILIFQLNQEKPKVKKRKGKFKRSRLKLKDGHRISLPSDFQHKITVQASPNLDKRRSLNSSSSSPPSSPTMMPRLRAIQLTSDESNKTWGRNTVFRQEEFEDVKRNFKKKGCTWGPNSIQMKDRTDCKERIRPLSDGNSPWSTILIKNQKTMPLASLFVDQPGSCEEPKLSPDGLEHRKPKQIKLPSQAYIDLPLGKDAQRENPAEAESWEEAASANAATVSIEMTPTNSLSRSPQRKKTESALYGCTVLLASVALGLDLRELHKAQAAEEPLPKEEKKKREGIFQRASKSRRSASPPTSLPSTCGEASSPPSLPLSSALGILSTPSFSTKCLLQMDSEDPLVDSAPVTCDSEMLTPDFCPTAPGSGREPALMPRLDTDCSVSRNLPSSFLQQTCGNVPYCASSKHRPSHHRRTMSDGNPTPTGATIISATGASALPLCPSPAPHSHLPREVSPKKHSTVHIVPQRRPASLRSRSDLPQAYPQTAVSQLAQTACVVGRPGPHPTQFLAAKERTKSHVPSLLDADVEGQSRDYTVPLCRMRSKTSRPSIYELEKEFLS
Protocol: as §1

[1] = test system: panel of 380 wild-type, mammalian kinases; experiment: SelectScreen selectivity profiling, whole panel; type: biochemical
Protocol: Supplementary Figure 4. Single-point selectivity screen of WEL028 on a panel of 380 kinases. All data were obtained from SelectScreen™ selectivity profiling service. Assays were performed at 1 μM WEL028 with 1 h preincubation. The ATP concentration was equal to the kinase K M, except for those indicated († = LanthaScreen technology, no ATP; * = 100 µM ATP; ** = 10 µM ATP). Values represent mean percentage inhibition compared to vehicle -treated control (n = 2). […]
inhibition from minimum (0%, white) to maximum (100%, red). Source data are provided as a Source

FER^WT = FER^WT (Homo sapiens, UniProt P16591); experiment: In vitro TR-FRET kinase assay
Sequence of FER^WT (P16591 448-820): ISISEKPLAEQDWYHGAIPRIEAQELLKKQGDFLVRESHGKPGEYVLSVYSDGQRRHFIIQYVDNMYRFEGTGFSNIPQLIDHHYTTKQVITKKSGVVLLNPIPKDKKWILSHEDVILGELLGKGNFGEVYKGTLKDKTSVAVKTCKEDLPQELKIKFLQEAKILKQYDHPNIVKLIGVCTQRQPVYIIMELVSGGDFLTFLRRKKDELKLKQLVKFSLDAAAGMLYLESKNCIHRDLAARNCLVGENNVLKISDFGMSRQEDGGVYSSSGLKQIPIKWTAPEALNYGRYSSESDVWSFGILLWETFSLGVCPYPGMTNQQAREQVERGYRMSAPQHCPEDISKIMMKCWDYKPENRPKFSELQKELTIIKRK

HUNK = biological target: T1, HUNK (Homo sapiens, UniProt P57058); experiment: SelectScreen kinase assay
T1 sequence (P57058 1-714): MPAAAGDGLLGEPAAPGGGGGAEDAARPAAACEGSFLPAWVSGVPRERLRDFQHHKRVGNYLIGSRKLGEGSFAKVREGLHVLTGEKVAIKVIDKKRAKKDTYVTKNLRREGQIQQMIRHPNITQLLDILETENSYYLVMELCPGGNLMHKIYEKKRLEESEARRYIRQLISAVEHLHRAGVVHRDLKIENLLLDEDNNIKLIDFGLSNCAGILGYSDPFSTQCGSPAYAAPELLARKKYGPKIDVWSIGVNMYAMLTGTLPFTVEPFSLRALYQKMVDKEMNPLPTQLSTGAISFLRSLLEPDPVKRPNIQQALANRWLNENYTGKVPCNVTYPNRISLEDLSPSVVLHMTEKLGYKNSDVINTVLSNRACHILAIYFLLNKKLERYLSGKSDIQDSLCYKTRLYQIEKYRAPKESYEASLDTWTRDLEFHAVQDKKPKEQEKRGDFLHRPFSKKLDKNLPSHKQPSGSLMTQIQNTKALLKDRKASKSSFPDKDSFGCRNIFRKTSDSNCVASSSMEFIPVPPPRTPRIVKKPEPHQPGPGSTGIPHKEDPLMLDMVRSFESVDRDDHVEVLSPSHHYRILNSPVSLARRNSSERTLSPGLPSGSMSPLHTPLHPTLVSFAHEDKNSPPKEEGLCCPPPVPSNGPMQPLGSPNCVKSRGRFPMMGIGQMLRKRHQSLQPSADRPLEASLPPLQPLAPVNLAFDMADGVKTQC
Protocol: as §1

RPS6KB2 (p70S6Kb) = RPS6KB2 (p70S6Kb) (Homo sapiens, UniProt Q9UBS0); experiment: SelectScreen kinase assay
Sequence of RPS6KB2 (p70S6Kb) (Q9UBS0 whole entry): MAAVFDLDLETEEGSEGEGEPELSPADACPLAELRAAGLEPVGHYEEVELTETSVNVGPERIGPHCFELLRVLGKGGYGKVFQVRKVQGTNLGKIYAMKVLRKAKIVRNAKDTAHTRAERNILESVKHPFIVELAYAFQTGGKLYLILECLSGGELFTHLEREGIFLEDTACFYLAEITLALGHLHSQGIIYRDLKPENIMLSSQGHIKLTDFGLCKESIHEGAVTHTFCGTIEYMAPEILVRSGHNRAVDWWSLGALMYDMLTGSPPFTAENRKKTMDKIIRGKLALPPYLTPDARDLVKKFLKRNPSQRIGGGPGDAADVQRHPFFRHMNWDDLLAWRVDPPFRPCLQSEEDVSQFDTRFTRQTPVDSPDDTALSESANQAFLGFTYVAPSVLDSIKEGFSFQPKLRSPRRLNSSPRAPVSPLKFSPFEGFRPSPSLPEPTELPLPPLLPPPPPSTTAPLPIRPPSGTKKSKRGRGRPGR
Protocol: as §1

IKBKE (IKK epsilon) = IKBKE (IKK epsilon) (Homo sapiens, UniProt Q14164); experiment: SelectScreen kinase assay; details: 1 h, 1 μM WEL028, 1 h preincubation
Sequence of IKBKE (IKK epsilon) (Q14164 whole entry): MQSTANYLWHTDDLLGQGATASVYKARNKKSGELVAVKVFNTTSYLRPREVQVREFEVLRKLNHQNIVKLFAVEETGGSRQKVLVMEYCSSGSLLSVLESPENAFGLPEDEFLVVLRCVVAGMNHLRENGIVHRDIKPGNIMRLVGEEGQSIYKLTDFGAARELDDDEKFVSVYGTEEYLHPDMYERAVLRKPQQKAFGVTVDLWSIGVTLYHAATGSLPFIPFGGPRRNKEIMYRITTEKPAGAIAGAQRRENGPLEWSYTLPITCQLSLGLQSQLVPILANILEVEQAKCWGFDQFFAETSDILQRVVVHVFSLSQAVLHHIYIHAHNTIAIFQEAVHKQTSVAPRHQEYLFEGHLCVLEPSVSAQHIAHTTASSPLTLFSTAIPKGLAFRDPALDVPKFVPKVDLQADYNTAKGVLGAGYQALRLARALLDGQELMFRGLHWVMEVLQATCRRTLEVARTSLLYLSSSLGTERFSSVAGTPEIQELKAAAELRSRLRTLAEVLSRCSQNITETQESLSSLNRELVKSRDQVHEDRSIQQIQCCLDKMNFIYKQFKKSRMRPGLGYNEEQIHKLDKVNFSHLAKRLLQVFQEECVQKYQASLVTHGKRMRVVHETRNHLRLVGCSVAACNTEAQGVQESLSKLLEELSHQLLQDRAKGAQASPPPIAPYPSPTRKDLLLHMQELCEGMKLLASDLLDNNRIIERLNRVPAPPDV
Protocol: as §1

STK4 (MST1) = STK4 (MST1) (Homo sapiens, UniProt Q13043); experiment: SelectScreen kinase assay
Sequence of STK4 (MST1) (Q13043 whole entry): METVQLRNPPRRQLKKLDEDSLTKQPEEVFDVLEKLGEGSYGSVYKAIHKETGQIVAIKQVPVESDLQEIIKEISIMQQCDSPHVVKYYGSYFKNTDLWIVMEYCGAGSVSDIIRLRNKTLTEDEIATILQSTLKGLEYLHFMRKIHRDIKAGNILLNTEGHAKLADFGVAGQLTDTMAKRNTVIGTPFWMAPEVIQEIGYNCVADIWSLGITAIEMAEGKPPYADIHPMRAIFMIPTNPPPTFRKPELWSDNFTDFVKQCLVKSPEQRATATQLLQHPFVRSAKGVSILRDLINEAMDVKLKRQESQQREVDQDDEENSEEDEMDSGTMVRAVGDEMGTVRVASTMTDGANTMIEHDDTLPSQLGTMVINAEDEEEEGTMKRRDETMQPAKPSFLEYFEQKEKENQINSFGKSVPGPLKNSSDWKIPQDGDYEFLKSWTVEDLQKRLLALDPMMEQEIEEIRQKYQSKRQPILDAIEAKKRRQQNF
Protocol: as §1

AURKA (Aurora A) = biological target: T2, AURKA (Aurora A) (Homo sapiens, UniProt O14965); experiment: SelectScreen kinase assay
T2 sequence (O14965 1-403): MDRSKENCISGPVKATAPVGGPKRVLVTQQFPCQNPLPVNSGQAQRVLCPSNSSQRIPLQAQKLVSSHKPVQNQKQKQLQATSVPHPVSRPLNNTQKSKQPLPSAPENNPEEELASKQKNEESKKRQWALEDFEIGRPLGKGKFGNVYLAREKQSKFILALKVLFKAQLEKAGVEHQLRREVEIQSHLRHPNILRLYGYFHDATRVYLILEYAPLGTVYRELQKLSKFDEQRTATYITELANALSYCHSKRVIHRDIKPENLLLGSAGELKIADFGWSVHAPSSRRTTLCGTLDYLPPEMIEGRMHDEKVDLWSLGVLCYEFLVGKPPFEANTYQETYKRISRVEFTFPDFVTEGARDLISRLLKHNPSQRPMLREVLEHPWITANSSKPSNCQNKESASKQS
Protocol: as §1

[2] = 1 h, 1 μM WEL028, 1 h preincubation
[3] = IC50 on that kinase divided by IC50 on FES^S700C

Sequence of CAMK2D (CaMKII delta) (Q13557 whole entry): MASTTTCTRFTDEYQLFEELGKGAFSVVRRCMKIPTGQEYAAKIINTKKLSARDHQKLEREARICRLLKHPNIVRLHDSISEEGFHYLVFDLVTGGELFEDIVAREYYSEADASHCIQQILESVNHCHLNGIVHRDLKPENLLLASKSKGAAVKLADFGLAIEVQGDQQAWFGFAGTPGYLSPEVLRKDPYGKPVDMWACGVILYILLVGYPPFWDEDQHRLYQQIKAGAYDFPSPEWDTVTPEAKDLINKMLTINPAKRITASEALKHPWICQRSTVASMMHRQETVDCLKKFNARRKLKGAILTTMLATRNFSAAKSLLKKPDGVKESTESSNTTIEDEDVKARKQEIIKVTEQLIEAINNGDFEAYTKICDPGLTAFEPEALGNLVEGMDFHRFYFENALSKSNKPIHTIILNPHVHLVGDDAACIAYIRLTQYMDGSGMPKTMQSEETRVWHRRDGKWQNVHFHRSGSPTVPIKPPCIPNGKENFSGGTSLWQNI

**Q.** For `C#CCOc1ccc(Nc2ncc(Cl)c(Nc3ccccc3NC(=O)C=C)n2)c(OC)c1` [Compound 6], which inhibition at 1 µM (CAMK2D (CaMKII delta); [2]) is on record?
**A.** Its inhibition at 1 µM is 8%.

**Q.** And the “Inhibition at 1 µM (%)” value (CAMK2D (CaMKII delta); CAMK2D (CaMKII delta), 1 µM, ZLYTE, ATP Km app)?
**A.** Its value is 15%.

**Q.** What about the IC50 (CLK4) of the same compound?
**A.** The IC50 was 1260 nM.

**Q.** What about the inhibition at 1 µM (CLK4; [2]) of the same compound?
**A.** Its inhibition at 1 µM is 53%.

**Q.** What about the inhibition at 10 µM (CLK4; 1 h, log[inhibitor] (M) -5.00, LanthaScreen Binding) of the same compound?
**A.** The inhibition at 10 µM was 30%.

**Q.** What about the inhibition at 3.311 µM (CLK4; 1 h, log[inhibitor] (M) -5.48, LanthaScreen Binding) of the same compound?
**A.** Its inhibition at 3.311 µM is 55%.

**Q.** What about the inhibition at 1.122 µM (CLK4; 1 h, log[inhibitor] (M) -5.95, LanthaScreen Binding) of the same compound?
**A.** The inhibition at 1.122 µM was 64%.

**Q.** And the inhibition at 0.3715 µM (CLK4; 1 h, log[inhibitor] (M) -6.43, LanthaScreen Binding)?
**A.** The inhibition at 0.3715 µM was 39%.

**Q.** And the inhibition at 0.123 µM (CLK4; 1 h, log[inhibitor] (M) -6.91, LanthaScreen Binding)?
**A.** The inhibition at 0.123 µM was 26%.

**Q.** What about the inhibition at 0.0138 µM (CLK4; 1 h, log[inhibitor] (M) -7.86, LanthaScreen Binding) of the same compound?
**A.** The inhibition at 0.0138 µM was 15%.

**Q.** What about the inhibition at 0.001514 µM (CLK4; 1 h, log[inhibitor] (M) -8.82, LanthaScreen Binding) of the same compound?
**A.** Its inhibition at 0.001514 µM is 11%.

**Q.** And the inhibition at 0.004571 µM (CLK4; 1 h, log[inhibitor] (M) -[…], LanthaScreen Binding)?
**A.** Its inhibition at 0.004571 µM is 8%.

**Q.** What about the “Inhibition at 1 µM (%)” value (CLK4; CLK4, 1 µM, LanthaScreen Binding, listed as WEL028, 1 µM) of the same compound?
**A.** The value was 52%.

**Q.** And the Apparent fold selectivity (CLK4; [3])?
**A.** Its Apparent fold selectivity is 272 fold.

**Q.** What about the inhibition at 1 µM (CLK4; read-out: Inhibition at 1 µM (%), CLK4, 1 µM, LanthaScreen Binding) of the same compound?
**A.** The inhibition at 1 µM was 54%.

**Q.** And the inhibition at 1 µM (MLK4; [2])?
**A.** Its inhibition at 1 µM is 3%.

**Q.** What about the “Inhibition at 1 µM (%)” value (MLK4; MLK4, 1 µM, LanthaScreen Binding, listed as WEL028, 1 µM) of the same compound?
**A.** Its value is 6% and 0%.

**Q.** And the “Selectivity window against the residual 354 kinases” value ([1]; 1 μM screen vs FES^S700C)?
**A.** The value was greater than 100 fold.

**Q.** What about the “Number of kinases with >50% inhibition” value ([1]; out of 380 tested kinases, 1 μM, 1 h preincubation) of the same compound?
**A.** The value was 26.

**Q.** What about the IC50 (FER^WT) of the same compound?
**A.** The IC50 was 501 nM.

**Q.** What about the inhibition at 1 µM (HUNK; [2]) of the same compound?
**A.** Its inhibition at 1 µM is 20%.

**Q.** And the “Inhibition at 1 µM (%)” value (HUNK; HUNK, 1 µM, LanthaScreen Binding, listed as WEL028, 1 µM)?
**A.** Its value is 21%.

**Q.** And the inhibition at 1 µM (HUNK; read-out: Inhibition at 1 µM (%), HUNK, 1 µM, LanthaScreen Binding)?
**A.** The inhibition at 1 µM was 19%.

**Q.** And the “Inhibition at 1 µM (%)” value (RPS6KB2 (p70S6Kb); 1 µM, ZLYTE, ATP Km app, listed as WEL028, 1 µM)?
**A.** Its value is 1% and 4%.

**Q.** And the inhibition at 1 µM (RPS6KB2 (p70S6Kb); [2])?
**A.** Its inhibition at 1 µM is 3%.

**Q.** What about the inhibition at 1 µM (IKBKE (IKK epsilon)) of the same compound?
**A.** Its inhibition at 1 µM is 2%.

**Q.** What about the “Inhibition (%)” value (STK4 (MST1); 1 μM WEL028, 1 h preincubation) of the same compound?
**A.** The value was 3%.

**Q.** And the “Inhibition at 1 µM (%)” value (STK4 (MST1); 1 µM, ZLYTE, ATP Km app)?
**A.** Its value is 11%.

**Q.** And the IC50 (AURKA (Aurora A))?
**A.** The IC50 was 631 nM.

**Q.** And the inhibition at 1 µM (AURKA (Aurora A); [2])?
**A.** The inhibition at 1 µM was 74%.

**Q.** And the inhibition at 10 µM (AURKA (Aurora A); 1 h, log[inhibitor] (M) -5.00, ZLYTE, ATP Km app)?
**A.** The inhibition at 10 µM was 100%.

**Q.** And the inhibition at 3.31 µM (AURKA (Aurora A); 1 h, log[inhibitor] (M) -5.48, ZLYTE, ATP Km app)?
**A.** The inhibition at 3.31 µM was 90%.

**Q.** What about the inhibition at 1.12 µM (AURKA (Aurora A); 1 h, log[inhibitor] (M) -5.95, ZLYTE, ATP Km app) of the same compound?
**A.** Its inhibition at 1.12 µM is 69%.

**Q.** And the inhibition at 0.372 µM (AURKA (Aurora A); 1 h, log[inhibitor] (M) -6.43, ZLYTE, ATP Km app)?
**A.** The inhibition at 0.372 µM was 46%.

**Q.** And the inhibition at 0.123 µM (AURKA (Aurora A); 1 h, log[inhibitor] (M) -6.91, ZLYTE, ATP Km app)?
**A.** Its inhibition at 0.123 µM is 28%.

**Q.** And the inhibition at 0.04074 µM (AURKA (Aurora A); 1 h, log[inhibitor] (M) -7.39, ZLYTE, ATP Km app)?
**A.** The inhibition at 0.04074 µM was 16%.

**Q.** What about the inhibition at 0.0138 µM (AURKA (Aurora A); 1 h, log[inhibitor] (M) -7.86, ZLYTE, ATP Km app) of the same compound?
**A.** Its inhibition at 0.0138 µM is 8%.

**Q.** And the inhibition at 0.004571 µM (AURKA (Aurora A); 1 h, log[inhibitor] (M) -[…], ZLYTE, ATP Km app)?
**A.** Its inhibition at 0.004571 µM is 3%.

**Q.** What about the “Inhibition at 1 µM (%)” value (AURKA (Aurora A); AURKA (Aurora A), 1 µM, ZLYTE, ATP Km app, listed as WEL028, 1 µM) of the same compound?
**A.** Its value is 70%.

**Q.** And the Apparent fold selectivity (AURKA (Aurora A); [3])?
**A.** Its Apparent fold selectivity is 155 fold.

**Q.** And the inhibition at 1 µM (AURKA (Aurora A); read-out: Inhibition at 1 µM (%), AURKA (Aurora A), 1 µM, ZLYTE, ATP Km app)?
**A.** The inhibition at 1 µM was 78%.
